How the values were obtained:
HT-29 = assay: Cytotoxicity against Homo sapiens (human) HT-29 cells assessed as cell viability after 48 hr by MTT assay; type: functional, cell-based
[1] = biological target: T1, Multidrug resistance-associated protein 1 (Homo sapiens, UniProt P33527); assay: Inhibition of Homo sapiens (human) MRP1 expressed in Sf9 cell membranes assessed as decrease in N-ethyl-maleimide-glutathione-induced inorganic phosphate production at 1 to 1000 uM by spectrophotometric analysis in presence of glutathione
[2] = Cytotoxicity against Homo sapiens (human) MDA-MB cells assessed as cell viability after 48 hr by MTT assay; type: functional, cell-based
[3] = biological target: T1, Multidrug resistance-associated protein 1; assay: Inhibition of Homo sapiens (human) MRP1 expressed in Sf9 cell membranes assessed as decrease in N-ethyl-maleimide-glutathione-induced inorganic phosphate production by spectrophotometric analysis in presence of glutathione
MRP1 [4] = biological target: T2, MRP1 (Homo sapiens, UniProt P33527); assay: Inhibition of Homo sapiens (human) MRP1 expressed in Sf9 cell membranes assessed as decrease in N-ethyl-maleimide-glutathione-induced inorganic phosphate production at 50 uM by spectrophotometric analysis in presence of glutathione relative to control; conditions: Sf9 cell membranes expressing human MRP1, probe N-ethyl-maleimide-glutathione, read-out: Imax
MRP1 [5] = biological target: T2, MRP1; assay: Inhibition of Homo sapiens (human) MRP1 expressed in Sf9 cell membranes assessed as decrease in N-ethyl-maleimide-glutathione-induced inorganic phosphate production at 10 uM by spectrophotometric analysis in presence of glutathione relative to control; conditions: Sf9 cell membranes expressing human MRP1, probe N-ethyl-maleimide-glutathione
[6] = Cytotoxicity against Homo sapiens (human) HSG cells; type: functional, cell-based
HSC-2 = assay: Cytotoxicity against Homo sapiens (human) HSC2 cells; type: functional, cell-based
[7] = Homo sapiens, MDA-MB, 48 h, read-out: IC50
[8] = Homo sapiens, HT-29, 48 h, read-out: IC50

T1 sequence (P33527 whole entry): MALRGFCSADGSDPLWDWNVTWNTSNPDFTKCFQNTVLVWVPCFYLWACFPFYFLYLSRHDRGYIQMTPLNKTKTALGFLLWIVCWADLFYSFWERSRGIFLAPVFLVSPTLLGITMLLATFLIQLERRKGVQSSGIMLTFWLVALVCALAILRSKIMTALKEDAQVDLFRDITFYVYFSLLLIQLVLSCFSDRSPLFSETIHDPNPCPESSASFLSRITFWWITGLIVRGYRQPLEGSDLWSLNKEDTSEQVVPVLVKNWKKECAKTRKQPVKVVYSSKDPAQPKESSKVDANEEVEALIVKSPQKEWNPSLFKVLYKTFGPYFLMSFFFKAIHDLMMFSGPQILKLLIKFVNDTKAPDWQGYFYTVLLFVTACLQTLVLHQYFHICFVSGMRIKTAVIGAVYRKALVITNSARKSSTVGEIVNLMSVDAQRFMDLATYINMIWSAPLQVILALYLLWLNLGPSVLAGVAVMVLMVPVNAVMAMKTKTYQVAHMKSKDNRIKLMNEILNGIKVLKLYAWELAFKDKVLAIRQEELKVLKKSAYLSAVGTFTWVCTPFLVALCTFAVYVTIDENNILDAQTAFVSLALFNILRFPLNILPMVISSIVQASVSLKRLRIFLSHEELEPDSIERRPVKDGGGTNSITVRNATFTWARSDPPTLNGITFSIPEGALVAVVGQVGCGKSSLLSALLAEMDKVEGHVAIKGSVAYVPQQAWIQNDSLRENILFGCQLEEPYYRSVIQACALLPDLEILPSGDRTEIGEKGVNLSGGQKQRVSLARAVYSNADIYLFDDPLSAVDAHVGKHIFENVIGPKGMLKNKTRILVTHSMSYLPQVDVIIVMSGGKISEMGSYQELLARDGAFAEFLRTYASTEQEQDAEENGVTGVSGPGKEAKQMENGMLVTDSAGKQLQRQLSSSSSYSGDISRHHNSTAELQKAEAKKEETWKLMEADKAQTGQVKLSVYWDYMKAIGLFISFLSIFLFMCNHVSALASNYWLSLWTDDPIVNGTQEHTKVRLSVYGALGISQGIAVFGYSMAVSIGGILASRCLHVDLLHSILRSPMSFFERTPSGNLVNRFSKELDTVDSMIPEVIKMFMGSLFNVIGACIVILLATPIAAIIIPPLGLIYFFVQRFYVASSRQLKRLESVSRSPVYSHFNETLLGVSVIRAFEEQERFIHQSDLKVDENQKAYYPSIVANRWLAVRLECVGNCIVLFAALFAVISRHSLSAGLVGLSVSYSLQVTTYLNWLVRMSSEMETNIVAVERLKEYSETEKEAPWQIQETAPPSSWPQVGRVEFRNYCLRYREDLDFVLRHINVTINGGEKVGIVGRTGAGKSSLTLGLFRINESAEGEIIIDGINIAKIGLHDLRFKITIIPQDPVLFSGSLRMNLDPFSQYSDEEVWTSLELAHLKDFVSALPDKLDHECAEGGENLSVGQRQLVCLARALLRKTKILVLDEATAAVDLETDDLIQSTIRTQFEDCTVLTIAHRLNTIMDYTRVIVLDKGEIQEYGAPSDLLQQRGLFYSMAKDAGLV
T2 sequence (P33527 whole entry): as above

For `CCCC1C(C(=O)OCC)=C(C)NC(C)=C1C(=O)OCC`, the IC50 (HT-29; ht-29) was “Not Active”, the “inhibition (INH)” value [1] was “Not Active” and the IC50 [2, 7] was 500 µM.
With `CCOC(=O)C1=C(C)NC(C)=C(C(=O)OCC)C1c1ccccc1` the IC50 (HT-29; ht-29) was “Not Active” and the IC50 ([2]; mda-mb) was “Not Active”.
With `CCOC(=O)C1=C(C)NC(C)=C(C(=O)OCC)C1c1cccc([N+](=O)[O-])c1` the IC50 (HT-29; [8]) was 500 µM, the “inhibition (INH)” value [1] was “Not Active” and the IC50 [2, 7] was 244 µM.
With `CCOC(=O)C1=C(C)NC(C)=C(C(=O)OCC)C1c1ccc(Cl)cc1` the IC50 [3] was 16 µM, the IC50 (HT-29; [8]) was 262 µM and the inhibition at 50 µM (MRP1 [4]) was 65%. It also gave an inhibition at 10 µM (MRP1 [5]) of 47% and an IC50 [2, 7] of 268 µM.
Compound `CCOC(=O)C1=C(C)NC(C)=C(C(=O)OCC)C1c1ccc(C)cc1` has an IC50 (HT-29; [8]) of 310 µM and an IC50 [2, 7] of 500 µM.
For `COC(=O)C1=C(C)NC(C)=C(C(=O)OC)C1c1ccc(Cl)cc1`, the IC50 (HT-29; ht-29) was “Not Active”, the “inhibition (INH)” value [1] was “Not Active” and the IC50 [2, 7] was 460 µM.
With `COC(=O)C1=C(C)NC(C)=C(C(=O)OC)C1c1ccc(OC)cc1` the IC50 (HT-29; [8]) was 452 µM and the IC50 ([2]; mda-mb) was “Not Active”.
For `CCOC(=O)C1=C(C)NC(C)=C(C(=O)OCC)C1c1ccc(OC)cc1`, the IC50 (HT-29; ht-29) was “Not Active”, the “inhibition (INH)” value [1] was “Not Active” and the IC50 [2, 7] was 331 µM.
With `COC(=O)C1=C(C)NC(C)=C(C(=O)OC)C1c1ccccc1` the IC50 (HT-29; ht-29) was “Not Active” and the IC50 ([2]; mda-mb) was “Not Active”.
In the case of `CCCCC1C(C(=O)OCC)=C(C)NC(C)=C1C(=O)OCC`, the IC50 (HT-29; ht-29) is reported as “Not Active”, the “inhibition (INH)” value [1] is reported as “Not Active” and the IC50 [2, 7] is reported as 350 µM.
For `CCCC1C(C(=O)OC)=C(C)NC(C)=C1C(=O)OC`, the IC50 (HT-29; ht-29) was “Not Active” and the IC50 ([2]; mda-mb) was “Not Active”.
In the case of `CCCCC1C(C(=O)OC)=C(C)NC(C)=C1C(=O)OC`, the IC50 (HT-29; [8]) is reported as 500 µM and the IC50 ([2]; mda-mb) is reported as “Not Active”.
With `COC(=O)C1=C(C)NC(C)=C(C(=O)OC)C1c1ccc(C)cc1` the IC50 (HT-29; ht-29) was “Not Active”, the “inhibition (INH)” value [1] was “Not Active” and the IC50 [2, 7] was 500 µM.
With `CC1=C(C(=O)c2ccccc2)C(c2ccccc2C(F)(F)F)C(C(=O)c2ccccc2)=C(C)N1` the IC50 [6] was 8.7 µM and the IC50 (HSC-2) was 8.7 µM.
Work on `CC1=C(C(=O)c2ccccc2)C(c2ccccc2Cl)C(C(=O)c2ccccc2)=C(C)N1` yielded an IC50 [6] of 28 µM and an IC50 (HSC-2) of 7 µM.

Source: ChEMBL document CHEMBL3046579, “Synthesis, anticancer and MRP1 inhibitory activities of 4-alkyl/aryl-3,5-bis(carboethoxy/carbomethoxy)-1,4-dihydro-2,6-dimethylpyridines” (Med Chem Res, 2013)
